Assay results: PubChem BioAssay AID270 (DTP/NCI, 2004)
Several values for one entry are separate records, joined by “and”; a condition that tells them apart may be missing. Equal values may be shown once. Inconclusive results are not listed.

Tested on: BDF1 mice, s.c. Lewis lung carcinoma, T/C %
Assay: NCI In Vivo Anticancer Drug Screen. Data for tumor model Lewis Lung Carcinoma (subcutaneous) in B6D2F1 (BDF1) mice
Procedure, shortened: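 The value reflects a ratio in which the treated cohort's survival time or tumour size is compared against mice receiving only vehicle.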

[1] = endpoint: median survival time, dose: 0.25 mg/kg/injection, schedule: Q01DX009 (ip), vehicle: saline, higher = longer survival
[2] = endpoint: mean tumor weight, dose: 50.0 mg/kg/injection, schedule: Q01DX011 (ip), vehicle: other, higher = larger tumour
[3] = endpoint: mean tumor weight, dose: 100.0 mg/kg/injection, schedule: Q01DX011 (ip), vehicle: other, higher = larger tumour

CC(=O)c1c(O)c(C)c(O)c2c1OC1=CC(=O)C(C(C)=O)C(=O)C12C (stereo unspecified)
T/C (endpoint: median survival time, dose: 6.25 mg/kg/injection, schedule: Q01DX009 (ip), vehicle: gum acacia, higher = longer survival): 111 % of control
T/C (endpoint: median survival time, dose: 12.5 mg/kg/injection, schedule: Q01DX009 (ip), vehicle: gum acacia, higher = longer survival): 95 % of control and 110 % of control
T/C (endpoint: median survival time, dose: 25.0 mg/kg/injection, schedule: Q01DX009 (ip), vehicle: gum acacia, higher = longer survival): 101 % of control and 102 % of control and 123 % of control
T/C (endpoint: median survival time, dose: 50.0 mg/kg/injection, schedule: Q01DX009 (ip), vehicle: gum acacia, higher = longer survival): 101 % of control and 113 % of control and 115 % of control
T/C (endpoint: median survival time, dose: 100.0 mg/kg/injection, schedule: Q01DX009 (ip), vehicle: gum acacia, higher = longer survival): 98 % of control and 116 % of control and 123 % of control
T/C (endpoint: median survival time, dose: 200.0 mg/kg/injection, schedule: Q01DX009 (ip), vehicle: gum acacia, higher = longer survival): 106 % of control

C=COCC(C)C (tested in a mixture with another compound)
T/C (endpoint: median survival time, dose: 1.25 mg/kg/injection, schedule: Q01DX009 (ip), vehicle: other, higher = longer survival): 101 % of control
T/C (endpoint: median survival time, dose: 2.5 mg/kg/injection, schedule: Q01DX009 (ip), vehicle: other, higher = longer survival): 110 % of control
T/C (endpoint: median survival time, dose: 5.0 mg/kg/injection, schedule: Q01DX009 (ip), vehicle: other, higher = longer survival): 107 % of control

CO[C@H](C(=O)[C@@H](O)[C@@H](C)O)[C@@H]1Cc2cc3cc(OC4CC(OC5CC(O)C(O)C(C)O5)C(O)C(C)O4)c(C)c(O)c3c(O)c2C(=O)[C@H]1OC1CC(OC2CC(OC3CC(C)(O)C(O)C(C)O3)C(O)C(C)O2)C(O)C(C)O1 (stereo partly specified)
T/C [1]: 116 % of control

OCCc1ccccc1
T/C (endpoint: mean tumor weight, dose: 62.5 mg/kg/injection, schedule: Q01DX011 (ip), vehicle: saline, higher = larger tumour): 95 % of control
T/C (endpoint: mean tumor weight, dose: 125.0 mg/kg/injection, schedule: Q01DX011 (ip), vehicle: saline, higher = larger tumour): 107 % of control
T/C (endpoint: mean tumor weight, dose: 250.0 mg/kg/injection, schedule: Q01DX011 (ip), vehicle: saline, higher = larger tumour): 75 % of control

Cc1cc2oc(=O)c3c(c2c(O)c1CN1CCCC1)CCCC3
T/C (endpoint: median survival time, dose: 29.0 mg/kg/injection, schedule: Q01DX009 (ip), vehicle: Klucel (hydroxypropylcellulose) (HPC), higher = longer survival): 94 % of control
T/C (endpoint: median survival time, dose: 58.0 mg/kg/injection, schedule: Q01DX009 (ip), vehicle: Klucel (hydroxypropylcellulose) (HPC), higher = longer survival): 106 % of control
T/C (endpoint: median survival time, dose: 116.0 mg/kg/injection, schedule: Q01DX009 (ip), vehicle: Klucel (hydroxypropylcellulose) (HPC), higher = longer survival): 106 % of control
T/C (endpoint: median survival time, dose: 232.0 mg/kg/injection, schedule: Q01DX009 (ip), vehicle: Klucel (hydroxypropylcellulose) (HPC), higher = longer survival): 94 % of control

COC(CCC(C)C1OC23CC(OC(=O)CC(C(C)O)OC(=O)CC(O)(O2)C(C)CC3(C)C)C1C)c1cccc(O)c1 (stereo unspecified)
T/C (endpoint: median survival time, dose: 25.0 micrograms/kg/injection, schedule: Q01DX009 (ip), vehicle: other, higher = longer survival): 88 % of control
T/C (endpoint: median survival time, dose: 50.0 micrograms/kg/injection, schedule: Q01DX009 (ip), vehicle: other, higher = longer survival): 101 % of control
T/C (endpoint: median survival time, dose: 100.0 micrograms/kg/injection, schedule: Q01DX009 (ip), vehicle: other, higher = longer survival): 111 % of control

Cc1cc(N)c2cc(NC(=O)CCCCCCCCC(=O)Nc3ccc4nc(C)cc(N)c4c3)ccc2n1
T/C (endpoint: mean tumor weight, dose: 12.5 mg/kg/injection, schedule: Q01DX011 (ip), vehicle: other, higher = larger tumour): 108 % of control
T/C [2]: 61 % of control
T/C [3]: 38 % of control
T/C (endpoint: median survival time, dose: 0.05 mg/kg/injection, schedule: Q01DX009 (ip), vehicle: Klucel (hydroxypropylcellulose) (HPC), higher = longer survival): 105 % of control
T/C (endpoint: median survival time, dose: 0.1 mg/kg/injection, schedule: Q01DX009 (ip), vehicle: Klucel (hydroxypropylcellulose) (HPC), higher = longer survival): 102 % of control
T/C (endpoint: median survival time, dose: 0.19 mg/kg/injection, schedule: Q01DX009 (ip), vehicle: Klucel (hydroxypropylcellulose) (HPC), higher = longer survival): 100 % of control
T/C (endpoint: median survival time, dose: 0.38 mg/kg/injection, schedule: Q01DX009 (ip), vehicle: Klucel (hydroxypropylcellulose) (HPC), higher = longer survival): 105 % of control
T/C (endpoint: median survival time, dose: 0.75 mg/kg/injection, schedule: Q01DX009 (ip), vehicle: Klucel (hydroxypropylcellulose) (HPC), higher = longer survival): 92 % of control
T/C (endpoint: median survival time, dose: 1.5 mg/kg/injection, schedule: Q01DX009 (ip), vehicle: Klucel (hydroxypropylcellulose) (HPC), higher = longer survival): 96 % of control
T/C (endpoint: median survival time, dose: 3.0 mg/kg/injection, schedule: Q01DX009 (ip), vehicle: Klucel (hydroxypropylcellulose) (HPC), higher = longer survival): 92 % of control
T/C (endpoint: median survival time, dose: 3.12 mg/kg/injection, schedule: Q01DX009 (ip), vehicle: Klucel (hydroxypropylcellulose) (HPC), higher = longer survival): 94 % of control
T/C (endpoint: median survival time, dose: 6.25 mg/kg/injection, schedule: Q01DX009 (ip), vehicle: Klucel (hydroxypropylcellulose) (HPC), higher = longer survival): 104 % of control
T/C (endpoint: median survival time, dose: 12.5 mg/kg/injection, schedule: Q01DX009 (ip), vehicle: Klucel (hydroxypropylcellulose) (HPC), higher = longer survival): 105 % of control
T/C (endpoint: median survival time, dose: 100.0 mg/kg/injection, schedule: Q01DX009 (ip), vehicle: Klucel (hydroxypropylcellulose) (HPC), higher = longer survival): 118 % of control

[N-]=[N+]=CC(=O)NCC(=O)NN
T/C (endpoint: mean tumor weight, dose: 125.0 mg/kg/injection, schedule: Q01DX011 (ip), vehicle: water, higher = larger tumour): 95 % of control
T/C (endpoint: mean tumor weight, dose: 250.0 mg/kg/injection, schedule: Q01DX011 (ip), vehicle: water, higher = larger tumour): 66 % of control
T/C (endpoint: mean tumor weight, dose: 500.0 mg/kg/injection, schedule: Q01DX011 (ip), vehicle: water, higher = larger tumour): 40 % of control

O=c1cc(CO)[nH]cc1O
T/C (endpoint: mean tumor weight, dose: 25.0 mg/kg/injection, schedule: Q01DX011 (ip), vehicle: methylcellulose (MC), higher = larger tumour): 81 % of control
T/C (endpoint: mean tumor weight, dose: 50.0 mg/kg/injection, schedule: Q01DX011 (ip), vehicle: methylcellulose (MC), higher = larger tumour): 77 % of control
T/C (endpoint: mean tumor weight, dose: 100.0 mg/kg/injection, schedule: Q01DX011 (ip), vehicle: methylcellulose (MC), higher = larger tumour): 63 % of control
T/C (endpoint: mean tumor weight, dose: 500.0 mg/kg/injection, schedule: Q01DX011 (ip), vehicle: methylcellulose (MC), higher = larger tumour): 62 % of control
T/C (endpoint: mean tumor weight, dose: 600.0 mg/kg/injection, schedule: Q01DX011 (ip), vehicle: methylcellulose (MC), higher = larger tumour): 82 % of control
T/C (endpoint: mean tumor weight, dose: 700.0 mg/kg/injection, schedule: Q01DX011 (ip), vehicle: methylcellulose (MC), higher = larger tumour): 115 % of control

CCCCCCCCCCCC[N+](C)(C)Cc1ccccc1
T/C (endpoint: median survival time, dose: 0.12 mg/kg/injection, schedule: Q01DX009 (ip), vehicle: saline, higher = longer survival): 111 % of control
T/C [1]: 94 % of control
T/C (endpoint: median survival time, dose: 1.0 mg/kg/injection, schedule: Q01DX009 (ip), vehicle: saline, higher = longer survival): 97 % of control
T/C (endpoint: median survival time, dose: 2.0 mg/kg/injection, schedule: Q01DX009 (ip), vehicle: saline, higher = longer survival): 97 % of control
T/C (endpoint: median survival time, dose: 4.0 mg/kg/injection, schedule: Q01DX009 (ip), vehicle: saline, higher = longer survival): 91 % of control
T/C (endpoint: median survival time, dose: 125.0 micrograms/kg/injection, schedule: Q01DX009 (ip), vehicle: saline, higher = longer survival): 107 % of control
T/C (endpoint: median survival time, dose: 250.0 micrograms/kg/injection, schedule: Q01DX009 (ip), vehicle: saline, higher = longer survival): 93 % of control
T/C (endpoint: median survival time, dose: 1000.0 micrograms/kg/injection, schedule: Q01DX009 (ip), vehicle: saline, higher = longer survival): 103 % of control
T/C (endpoint: median survival time, dose: 2000.0 micrograms/kg/injection, schedule: Q01DX009 (ip), vehicle: saline, higher = longer survival): 109 % of control
T/C (endpoint: median survival time, dose: 4000.0 micrograms/kg/injection, schedule: Q01DX009 (ip), vehicle: saline, higher = longer survival): 107 % of control
T/C (endpoint: median survival time, dose: 8000.0 micrograms/kg/injection, schedule: Q01DX009 (ip), vehicle: saline, higher = longer survival): 96 % of control

O=NN(CCCl)C(=O)Nc1ccc(CCCl)cc1
T/C (endpoint: mean tumor weight, dose: 1.5 mg/kg/injection, schedule: Q01DX001 (ip), vehicle: carboxymethylcellulose (CMC), higher = larger tumour): 91 % of control
T/C (endpoint: mean tumor weight, dose: 3.0 mg/kg/injection, schedule: Q01DX001 (ip), vehicle: carboxymethylcellulose (CMC), higher = larger tumour): 106 % of control
T/C (endpoint: mean tumor weight, dose: 6.0 mg/kg/injection, schedule: Q01DX001 (ip), vehicle: carboxymethylcellulose (CMC), higher = larger tumour): 90 % of control
T/C (endpoint: mean tumor weight, dose: 12.0 mg/kg/injection, schedule: Q01DX001 (ip), vehicle: carboxymethylcellulose (CMC), higher = larger tumour): 52 % of control

CC[C@H](CC[C@@H](C)[C@H]1CC[C@H]2[C@@H]3CC=C4C[C@@H](O)CC[C@]4(C)[C@H]3CC[C@]12C)C(C)C
T/C (endpoint: mean tumor weight, dose: 15.0 mg/kg/injection, schedule: Q01DX011 (ip), vehicle: water, higher = larger tumour): 72 % of control
T/C (endpoint: mean tumor weight, dose: 25.0 mg/kg/injection, schedule: Q01DX011 (ip), vehicle: water, higher = larger tumour): 74 % of control
T/C (endpoint: mean tumor weight, dose: 40.0 mg/kg/injection, schedule: Q01DX011 (ip), vehicle: water, higher = larger tumour): 47 % of control
T/C (endpoint: mean tumor weight, dose: 100.0 mg/kg/injection, schedule: Q01DX011 (ip), vehicle: water, higher = larger tumour): 47 % of control
T/C (endpoint: mean tumor weight, dose: 150.0 mg/kg/injection, schedule: Q01DX011 (ip), vehicle: water, higher = larger tumour): 32 % of control
T/C (endpoint: mean tumor weight, dose: 225.0 mg/kg/injection, schedule: Q01DX011 (ip), vehicle: water, higher = larger tumour): 11 % of control

O=C1OC(C(O)CO)C(O)=C1O (stereo unspecified)
T/C (endpoint: median survival time, dose: 1.0 mg/kg/injection, schedule: Q02DX009 (ip), vehicle: saline, higher = longer survival): 113 % of control
T/C (endpoint: median survival time, dose: 1000.0 mg/kg/injection, schedule: Q02DX009 (ip), vehicle: saline, higher = longer survival): 87 % of control
T/C (endpoint: median survival time, dose: 10000.0 mg/kg/injection, schedule: Q02DX009 (ip), vehicle: saline, higher = longer survival): 10 % of control

Cc1cc(O)c(C(C)C)cc1S(=O)(=O)O (tested in a mixture with another compound)
T/C (endpoint: mean tumor weight, dose: 25.0 mg/kg/injection, schedule: Q01DX011 (ip), vehicle: other, higher = larger tumour): 95 % of control
T/C [2]: 105 % of control
T/C [3]: 114 % of control
T/C (endpoint: mean tumor weight, dose: 200.0 mg/kg/injection, schedule: Q01DX011 (ip), vehicle: other, higher = larger tumour): 98 % of control
